Measured values taken from patent publication US7041698B2, “Hepatitis C virus inhibitors” (Bristol-Myers Squibb Company, priority 2002, dated 2006).

Tests used:
[1] = molecular target: T1, HCV NS3/4A protease complex (UniProt P27958, C1454S/C1711G, species not given); assay: Recombinant HCV NS3/4A protease complex FRET peptide assay (strain not stated); type: biochemical; details: HCV NS3/4A protease enzyme assay, read-out: IC50 range
T1 construct: fused on or other part: Three-lysine solubilising tail at the C-terminus of NS4A

[2] = test system: HCV replicon in Huh7 cells; assay: HCV replicon cell-based assay; design: species or system HCV strain 1B; details: Hepatitis C virus, Huh-7, 96 h, HCV replicon, 4 days, read-out: EC50 range
Summary of the method: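 Huh7 cells carrying a genotype 1b subgenomic replicon (NS3-NS5B, neo) treated 4 days at 37° C with compound (0.5% DMSO final). NS3 protease activity read in lysates with 10 μM FRET peptide (340/490 nm, kinetic), giving EC50. Confirmed by Taqman qRT-PCR of HCV RNA and a Renilla luciferase replicon.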

C=CC1C[C@]1(NC(=O)[C@@H]1C[C@@H](OC(=O)Nc2ccccc2C(=O)O)CN1C(=O)[C@@H](NC(=O)OC(C)(C)C)C(C)(C)C)C(=O)NS(=O)(=O)C1CC1 (stereo partly drawn) [Compound 69, BocNH-P3(t-BuGly)-P2(Hyp(O—CO(NH—(2-benzoic acid))))-P1(1R,2S VinylAcca)—CONHSO2Cyclopropane]
IC50 [1]: 100 to 1000 nM
EC50 [2]: > 10000 nM

C=CC1C[C@]1(NC(=O)[C@@H]1C[C@@H](OC(=O)Nc2onc(C)c2C)CN1C(=O)[C@@H](NC(=O)OC(C)(C)C)C(C)(C)C)C(=O)NS(=O)(=O)C1CC1 (stereo partly drawn) [Compound 70, BocNH-P3(t-BuGly)-P2(Hyp(O—CO(NH—(3,4-Dimethyl-isoxazol-5-yl))))-P1(1R,2S VinylAcca)—CONHSO2Cyclopropane]
IC50 [1]: 100 to 1000 nM
EC50 [2]: > 10000 nM

C=CC1C[C@]1(NC(=O)[C@@H]1C[C@@H](OC(=O)Nc2cscc2C(=O)OC)CN1C(=O)[C@@H](NC(=O)OC(C)(C)C)C(C)(C)C)C(=O)NS(=O)(=O)C1CC1 (stereo partly drawn) [Compound 71, BocNH-P3(t-BuGly)-P2(Hyp(O—CO(NH-4-(thiophene-3-carboxylic acid methyl ester))))-P1(1R,2S VinylAcca)—CONHSO2Cyclopropane]
IC50 [1]: < 100 nM
EC50 [2]: 100 to 1000 nM

C=CC1C[C@]1(NC(=O)[C@@H]1C[C@@H](OC(=O)Nc2ncccc2C(=O)OCC)CN1C(=O)[C@@H](NC(=O)OC(C)(C)C)C(C)(C)C)C(=O)NS(=O)(=O)C1CC1 (stereo partly drawn) [Compound 72, BocNH-P3(t-BuGly)-P2(Hyp(O—CO(NH-2-(nicotinic acid ethyl ester))))-P1(1R,2S VinylAcca)—CONHSO2Cyclopropane]
IC50 [1]: < 100 nM
EC50 [2]: 1000 to 10000 nM

C=CC1C[C@]1(NC(=O)[C@@H]1C[C@@H](OC(=O)Nc2cc(C)nn2-c2ccccc2)CN1C(=O)[C@@H](NC(=O)OC(C)(C)C)C(C)(C)C)C(=O)NS(=O)(=O)C1CC1 (stereo partly drawn) [Compound 73, BocNH-P3(t-BuGly)-P2(Hyp(O—CO(NH—(5-Methyl-2-phenyl-4H-pyrazol-3-yl))))-P1(1R,2S VinylAcca)—CONHSO2 Cyclopropane]
IC50 [1]: < 100 nM
EC50 [2]: > 10000 nM

C=CC1C[C@]1(NC(=O)[C@@H]1C[C@@H](OC(=O)Nc2ccccc2C(=O)c2ccccc2)CN1C(=O)[C@@H](NC(=O)OC(C)(C)C)C(C)(C)C)C(=O)NS(=O)(=O)C1CC1 (stereo partly drawn) [Compound 74, BocNH-P3(t-BuGly)-P2(Hyp(O—CO(NH—(2-benzophenone))))-P1(1R,2S VinylAcca)—CONHSO2Cyclopropane]
IC50 [1]: < 100 nM
EC50 [2]: 100 to 1000 nM

C=CC1C[C@]1(NC(=O)[C@@H]1C[C@@H](OC(=O)Nc2ccccn2)CN1C(=O)[C@@H](NC(=O)OC(C)(C)C)C(C)(C)C)C(=O)NS(=O)(=O)C1CC1 (stereo partly drawn) [Compound 75, BocNH-P3(t-BuGly)-P2(Hyp(O—CO(NH—(pyridin-2-yl))))-P1(1R,2S VinylAcca)—CONHSO2Cyclopropane]
IC50 [1]: 100 to 1000 nM
EC50 [2]: > 10000 nM

C=CC1C[C@]1(NC(=O)[C@@H]1C[C@@H](OC(=O)Nc2cc(C(C)=O)ccc2N2CCC(C(=O)OCC)CC2)CN1C(=O)[C@@H](NC(=O)OC(C)(C)C)C(C)(C)C)C(=O)NS(=O)(=O)C1CC1 (stereo partly drawn) [Compound 76, BocNH-P3(t-BuGly)-P2(Hyp(O—CO(NH-2-(1-(4-acetyl-phenyl))-piperidine-4-carboxylic acid ethyl ester)))-P1(1R,2S VinylAcca)—CONHSO2Cyclopropane]
IC50 [1]: < 100 nM
EC50 [2]: 100 to 1000 nM

C=CC1C[C@]1(NC(=O)[C@@H]1C[C@@H](OC(=O)Nc2ccc(Cl)cc2-c2cc(C)n[nH]2)CN1C(=O)[C@@H](NC(=O)OC(C)(C)C)C(C)(C)C)C(=O)NS(=O)(=O)C1CC1 (stereo partly drawn) [Compound 78, BocNH-P3(t-BuGly)-P2(Hyp(O—CO(NH-1-(4-Chloro-2-(5-methyl-2H-pyrazol-3-yl)phenyl))))-P1(1R,2S VinylAcca)—CONHSO2Cyclopropane]
IC50 [1]: 100 to 1000 nM
EC50 [2]: > 10000 nM

C=CC1C[C@]1(NC(=O)[C@@H]1C[C@@H](OC(=O)Nc2ccccc2C(C)=O)CN1C(=O)[C@@H](NC(=O)OC(C)(C)C)C(C)(C)C)C(=O)NS(=O)(=O)C1CC1 (stereo partly drawn) [Compound 79, BocNH-P3(t-BuGly)-P2(Hyp(O—CO(NH—(2-acetophenone))))-P1(1R,2S VinylAcca)—CONHSO2Cyclopropane]
IC50 [1]: < 100 nM
EC50 [2]: 100 to 1000 nM

C=CC1C[C@]1(NC(=O)[C@@H]1C[C@@H](OC(=O)Nc2cc(C(C)=O)ccc2N2CCCCC2)CN1C(=O)[C@@H](NC(=O)OC(C)(C)C)C(C)(C)C)C(=O)NS(=O)(=O)C1CC1 (stereo partly drawn) [Compound 80, BocNH-P3(t-BuGly)-P2(Hyp(O—CO(NH-1-(2-piperidino-5-acetylphenyl))))-P1(1R,2S VinylAcca)—CONHSO2Cyclopropane]
IC50 [1]: < 100 nM
EC50 [2]: < 100 nM

C=CC1C[C@]1(NC(=O)[C@@H]1C[C@@H](OC(=O)Nc2ccccc2-c2ccc(C)o2)CN1C(=O)[C@@H](NC(=O)OC(C)(C)C)C(C)(C)C)C(=O)NS(=O)(=O)C1CC1 (stereo partly drawn) [Compound 81]
IC50 [1]: < 100 nM
EC50 [2]: < 100 nM

C=CC1C[C@]1(NC(=O)[C@@H]1C[C@@H](OC(=O)Nc2ccccc2N2CCOCC2)CN1C(=O)[C@@H](NC(=O)OC(C)(C)C)C(C)(C)C)C(=O)NS(=O)(=O)C1CC1 (stereo partly drawn) [Compound 82, BocNH-P3(t-BuGly)-P2(Hyp(O—CO(NH-2-(morpholin-4-yl-phenyl))))-P1(1R,2S VinylAcca)—CONHSO2Cyclopropane]
IC50 [1]: < 100 nM
EC50 [2]: 100 to 1000 nM

C=CC1C[C@]1(NC(=O)[C@@H]1C[C@@H](OC(=O)Nc2cc(C)ccc2-n2cccc2)CN1C(=O)[C@@H](NC(=O)OC(C)(C)C)C(C)(C)C)C(=O)NS(=O)(=O)C1CC1 (stereo partly drawn) [Compound 83, BocNH-P3(t-BuGly)-P2(Hyp(O—CO(NH—(5-Methyl-2-pyrrol-1-yl-phenyl))))-P1(1R,2S VinylAcca)—CONHSO2Cyclopropane]
IC50 [1]: < 100 nM
EC50 [2]: < 100 nM

C=CC1C[C@]1(NC(=O)[C@@H]1C[C@@H](OC(=O)Nc2cc(C(F)(F)F)ccc2N2CCCC2)CN1C(=O)[C@@H](NC(=O)OC(C)(C)C)C(C)(C)C)C(=O)NS(=O)(=O)C1CC1 (stereo partly drawn) [Compound 84, BocNH-P3(t-BuGly)-P2(Hyp(O—CO(NH—(2-Pyrrolidin-1-yl-5-trifluoromethyl-phenyl))))-P1(1R,2S VinylAcca)—CONHSO2Cyclopropane]
IC50 [1]: < 100 nM
EC50 [2]: 100 to 1000 nM

C=CC1C[C@]1(NC(=O)[C@@H]1C[C@@H](OC(=O)Nc2cc(C(F)(F)F)ccc2-n2cccc2)CN1C(=O)[C@@H](NC(=O)OC(C)(C)C)C(C)(C)C)C(=O)NS(=O)(=O)C1CC1 (stereo partly drawn) [Compound 85]
IC50 [1]: < 100 nM
EC50 [2]: 100 to 1000 nM

C=CC1C[C@]1(NC(=O)[C@@H]1C[C@@H](OC(=O)Nc2ccccc2-n2cccc2)CN1C(=O)[C@@H](NC(=O)OC(C)(C)C)C(C)(C)C)C(=O)NS(=O)(=O)C1CC1 (stereo partly drawn) [Compound 86, BocNH-P3(t-BuGly)-P2(Hyp(O—CO(NH—(2-pyrrol-1-yl-phenyl))))-P1(1R,2S VinylAcca)—CONHSO2Cyclopropane]
IC50 [1]: < 100 nM
EC50 [2]: 100 to 1000 nM

C=CC1C[C@]1(NC(=O)[C@@H]1C[C@@H](OC(=O)Nc2ccccc2-n2nc3cc(OC)c(OC)cc3n2)CN1C(=O)[C@@H](NC(=O)OC(C)(C)C)C(C)(C)C)C(=O)NS(=O)(=O)C1CC1 (stereo partly drawn) [Compound 87, BocNH-P3(t-BuGly)-P2(Hyp(O—CO(NH—(2-(5,6-Dimethoxy-benzotriazol-2-yl)-phenyl))))-P1(1R,2S VinylAcca)—CONHSO2Cyclopropane]
IC50 [1]: < 100 nM
EC50 [2]: < 100 nM

C=CC1C[C@]1(NC(=O)[C@@H]1C[C@@H](OC(=O)Nc2ccccc2-c2nnc[nH]2)CN1C(=O)[C@@H](NC(=O)OC(C)(C)C)C(C)(C)C)C(=O)NS(=O)(=O)C1CC1 (stereo partly drawn) [Compound 88, BocNH-P3(t-BuGly)-P2(Hyp(O—CO(NH—(2-(4H-[1,2,4]Triazol-3-yl)-phenyl))))-P1(1R,2S VinylAcca)—CONHSO2Cyclopropane]
IC50 [1]: < 100 nM
EC50 [2]: > 10000 nM

C=CC1C[C@]1(NC(=O)[C@@H]1C[C@@H](OC(=O)Nc2ccccc2-n2cccn2)CN1C(=O)[C@@H](NC(=O)OC(C)(C)C)C(C)(C)C)C(=O)NS(=O)(=O)C1CC1 (stereo partly drawn) [Compound 89, BocNH-P3(t-BuGly)-P2(Hyp(O—CO(NH—(2-Pyrazol-1-yl-phenyl))))-P1(1R,2S VinylAcca)—CONHSO2Cyclopropane]
IC50 [1]: < 100 nM
EC50 [2]: 100 to 1000 nM

C=CC1C[C@]1(NC(=O)[C@@H]1C[C@@H](OC(=O)Nc2ccccc2N2CCCCC2)CN1C(=O)[C@@H](NC(=O)OC(C)(C)C)C(C)(C)C)C(=O)NS(=O)(=O)C1CC1 (stereo partly drawn) [Compound 90, BocNH-P3(t-BuGly)-P2(Hyp(O—CO(NH—(2-Piperidin-1-yl-phenyl))))-P1(1R,2S VinylAcca)—CONHSO2Cyclopropane]
IC50 [1]: < 100 nM
EC50 [2]: < 100 nM

C=CC1C[C@]1(NC(=O)[C@@H]1C[C@@H](OC(=O)Nc2cc(C(=O)OCC)ccc2N2CCCCC2)CN1C(=O)[C@@H](NC(=O)OC(C)(C)C)C(C)(C)C)C(=O)NS(=O)(=O)C1CC1 (stereo partly drawn) [Compound 91, BocNH-P3(t-BuGly)-P2(Hyp(O—CO(NH—(5-carboxyethyl-2-piperidin-1-ylphenyl))))-P1(1R,2S VinylAcca)—CONHSO2Cyclopropane]
IC50 [1]: < 100 nM
EC50 [2]: 100 to 1000 nM

C=CC1C[C@]1(NC(=O)[C@@H]1C[C@@H](OC(=O)Nc2cc(C(F)(F)F)ccc2N2CCC(C(F)(F)F)CC2)CN1C(=O)[C@@H](NC(=O)OC(C)(C)C)C(C)(C)C)C(=O)NS(=O)(=O)C1CC1 (stereo partly drawn) [Compound 92, BocNH-P3(t-BuGly)-P2(Hyp(O—CO(NH—(5-Trifluoromethyl-2-(4-trifluoromethyl-piperidin-1-yl)-phenyl))))-P1(1R,2S VinylAcca)—CONHSO2Cyclopropane]
IC50 [1]: < 100 nM
EC50 [2]: < 100 nM

C=CC1C[C@]1(NC(=O)[C@@H]1C[C@@H](OC(=O)Nc2ccccc2-n2nccn2)CN1C(=O)[C@@H](NC(=O)OC(C)(C)C)C(C)(C)C)C(=O)NS(=O)(=O)C1CC1 (stereo partly drawn) [Compound 93, BocNH-P3(t-BuGly)-P2(Hyp(O—CO(NH—(2-[1,2,3]Triazol-2-yl-phenyl))))-P1(1R,2S VinylAcca)—CONHSO2Cyclopropane]
IC50 [1]: < 100 nM
EC50 [2]: 100 to 1000 nM
